The nature of data set [1]: refractive index (Na D-line) (dimensionless). The note with it: 101.33 kPa, Liquid, Standard Abbe refractometry.
The conditions of data set [2]: 101 kPa, Liquid, Vibrating tube method.
Data set [3] is described as follows: xn = mol fraction of the nth substance listed. The note with it: 101 kPa, Liquid, Vibrating tube method, x2 = 0.
Data set [4] is described as follows: refractive index (Na D-line) (dimensionless); xn = mol fraction of the nth substance listed. The note with it: 101 kPa, Liquid, Standard Abbe refractometry, x2 = 0.

± gives the expanded uncertainty stated by the source.

As for `C=C[Si](C)(C)O[Si](C)(C)C=C` [1,3-diethenyl-1,1,3,3-tetramethyldisiloxane], the refractive index in data set [1] (283.15 K) turned out to be 1.41766 ± 0.00032; in data set [1] (288.15 K) it was 1.415 ± 0.00032; in data set [1] (293.15 K) it was 1.41236 ± 0.00032; in data set [1] (298.15 K), 1.4097 ± 0.00032; in data set [1] (303.15 K), 1.40707 ± 0.00032. Further, the mass density is reported as 822.67 ± 1 kg/m3 in data set [2] (283.15 K); 817.77 ± 1 kg/m3 in data set [2] (288.15 K); 812.92 ± 1 kg/m3 in data set [2] (293.15 K); 808 ± 1 kg/m3 in data set [2] (298.15 K); 803.07 ± 1 kg/m3 in data set [2] (303.15 K).

On to `COc1ccccc1` [anisole], for which the refractive index in data set [1] (283.15 K) came out at 1.52242 ± 0.00031; in data set [1] (288.15 K), 1.51985 ± 0.00031; in data set [1] (293.15 K), 1.51724 ± 0.00031; in data set [1] (298.15 K) it was 1.5146 ± 0.00032; in data set [1] (303.15 K), 1.51191 ± 0.00032. Besides, the mass density in data set [2] (283.15 K) is on record as 1003.3 ± 1 kg/m3; in data set [2] (288.15 K), 998.62 ± 1 kg/m3; in data set [2] (293.15 K), 994.01 ± 1 kg/m3; in data set [2] (298.15 K), 989.32 ± 1 kg/m3; in data set [2] (303.15 K), 984.59 ± 1 kg/m3.

Consider `COc1ccccc1` [anisole] + C=C[Si](C)(C)O[Si](C)(C)C=C, for which the mass density is given as 1003.3 ± 1 kg/m3 in data set [3] (283.15 K); 998.62 ± 1 kg/m3 in data set [3] (288.15 K); 994.01 ± 1 kg/m3 in data set [3] (293.15 K); 989.32 ± 1 kg/m3 in data set [3] (298.15 K); 984.59 ± 1 kg/m3 in data set [3] (303.15 K). For the same compound, the refractive index in data set [4] (283.15 K) was determined as 1.52242 ± 0.00031; in data set [4] (288.15 K), 1.51985 ± 0.00031; in data set [4] (293.15 K), 1.51724 ± 0.00031; in data set [4] (298.15 K), 1.5146 ± 0.00032; in data set [4] (303.15 K), 1.51191 ± 0.00032.

For `Clc1ccccc1` [chlorobenzene], the refractive index in data set [1] (283.15 K) was 1.52992 ± 0.00032; in data set [1] (288.15 K) it was 1.52722 ± 0.00032; in data set [1] (293.15 K), 1.52446 ± 0.00032; in data set [1] (298.15 K), 1.52168 ± 0.00032; in data set [1] (303.15 K) it was 1.51893 ± 0.00032. Also, the mass density in data set [2] (283.15 K) worked out at 1117.29 ± 1 kg/m3; in data set [2] (288.15 K), 1111.89 ± 1 kg/m3; in data set [2] (293.15 K), 1106.55 ± 1 kg/m3; in data set [2] (298.15 K), 1101.16 ± 1 kg/m3; in data set [2] (303.15 K) it was 1095.79 ± 1 kg/m3.

With `Clc1ccccc1` [chlorobenzene] + C=C[Si](C)(C)O[Si](C)(C)C=C, the mass density is reported as 1117.29 ± 1 kg/m3 in data set [3] (283.15 K); 1111.89 ± 1 kg/m3 in data set [3] (288.15 K); 1106.55 ± 1 kg/m3 in data set [3] (293.15 K); 1101.16 ± 1 kg/m3 in data set [3] (298.15 K); 1095.79 ± 1 kg/m3 in data set [3] (303.15 K). Also, the refractive index was found to be 1.52992 ± 0.00032 in data set [4] (283.15 K); 1.52722 ± 0.00032 in data set [4] (288.15 K); 1.52446 ± 0.00032 in data set [4] (293.15 K); 1.52168 ± 0.00032 in data set [4] (298.15 K); 1.51893 ± 0.00032 in data set [4] (303.15 K).

For `CCc1ccccc1` [ethylbenzene], the refractive index in data set [1] (283.15 K) worked out at 1.50118 ± 0.00032; in data set [1] (288.15 K), 1.49845 ± 0.00032; in data set [1] (293.15 K), 1.49575 ± 0.00032; in data set [1] (298.15 K), 1.49301 ± 0.00032; in data set [1] (303.15 K), 1.4903 ± 0.00032. The mass density in data set [2] (283.15 K) was found to be 875.69 ± 1 kg/m3; in data set [2] (288.15 K), 871.3 ± 1 kg/m3; in data set [2] (293.15 K), 866.9 ± 1 kg/m3; in data set [2] (298.15 K), 862.58 ± 1 kg/m3; in data set [2] (303.15 K), 858.16 ± 1 kg/m3.

For the compound `CCc1ccccc1` [ethylbenzene] + C=C[Si](C)(C)O[Si](C)(C)C=C, the mass density was 875.69 ± 1 kg/m3 in data set [3] (283.15 K); 871.3 ± 1 kg/m3 in data set [3] (288.15 K); 866.9 ± 1 kg/m3 in data set [3] (293.15 K); 862.58 ± 1 kg/m3 in data set [3] (298.15 K); 858.16 ± 1 kg/m3 in data set [3] (303.15 K). For the same compound, the refractive index amounted to 1.50118 ± 0.00032 in data set [4] (283.15 K); 1.49845 ± 0.00032 in data set [4] (288.15 K); 1.49575 ± 0.00032 in data set [4] (293.15 K); 1.49301 ± 0.00032 in data set [4] (298.15 K); 1.4903 ± 0.00032 in data set [4] (303.15 K).

On to `Fc1ccccc1` [fluorobenzene], for which the refractive index was 1.47152 ± 0.00032 in data set [1] (283.15 K); 1.46859 ± 0.00032 in data set [1] (288.15 K); 1.46571 ± 0.00032 in data set [1] (293.15 K); 1.46283 ± 0.00032 in data set [1] (298.15 K); 1.45989 ± 0.00032 in data set [1] (303.15 K). The mass density in data set [2] (283.15 K) is given as 1036.89 ± 1 kg/m3; in data set [2] (288.15 K), 1030.93 ± 1 kg/m3; in data set [2] (293.15 K) it was 1024.96 ± 1 kg/m3; in data set [2] (298.15 K) it was 1019.07 ± 1 kg/m3; in data set [2] (303.15 K) it was 1013.03 ± 1 kg/m3.

`Fc1ccccc1` [fluorobenzene] + C=C[Si](C)(C)O[Si](C)(C)C=C: the mass density in data set [3] (283.15 K) is given as 1036.89 ± 1 kg/m3; in data set [3] (288.15 K) it was 1030.93 ± 1 kg/m3; in data set [3] (293.15 K), 1024.96 ± 1 kg/m3; in data set [3] (298.15 K), 1019.07 ± 1 kg/m3; in data set [3] (303.15 K), 1013.03 ± 1 kg/m3. Further, the refractive index was determined as 1.47152 ± 0.00032 in data set [4] (283.15 K); 1.46859 ± 0.00032 in data set [4] (288.15 K); 1.46571 ± 0.00032 in data set [4] (293.15 K); 1.46283 ± 0.00032 in data set [4] (298.15 K); 1.45989 ± 0.00032 in data set [4] (303.15 K).

Regarding `O=[N+]([O-])c1ccccc1` [nitrobenzene], the refractive index in data set [1] (283.15 K) was determined as 1.55729 ± 0.00031; in data set [1] (288.15 K) it was 1.55485 ± 0.00031; in data set [1] (293.15 K), 1.55234 ± 0.00031; in data set [1] (298.15 K) it was 1.54992 ± 0.00031; in data set [1] (303.15 K), 1.54746 ± 0.00031. Moreover, the mass density turned out to be 1212.99 ± 1 kg/m3 in data set [2] (283.15 K); 1208.01 ± 1 kg/m3 in data set [2] (288.15 K); 1203.05 ± 1 kg/m3 in data set [2] (293.15 K); 1198.2 ± 1 kg/m3 in data set [2] (298.15 K); 1193.25 ± 1 kg/m3 in data set [2] (303.15 K).

As to `O=[N+]([O-])c1ccccc1` [nitrobenzene] + C=C[Si](C)(C)O[Si](C)(C)C=C, the mass density in data set [3] (283.15 K) is 1212.99 ± 1 kg/m3; in data set [3] (288.15 K), 1208.01 ± 1 kg/m3; in data set [3] (293.15 K), 1203.05 ± 1 kg/m3; in data set [3] (298.15 K), 1198.2 ± 1 kg/m3; in data set [3] (303.15 K) it was 1193.25 ± 1 kg/m3. The refractive index in data set [4] (283.15 K) came out at 1.55729 ± 0.00031; in data set [4] (288.15 K), 1.55485 ± 0.00031; in data set [4] (293.15 K) it was 1.55234 ± 0.00031; in data set [4] (298.15 K) it was 1.54992 ± 0.00031; in data set [4] (303.15 K), 1.54746 ± 0.00031.

The values are drawn from the NIST ThermoML archive (doi:10.1016/j.jct.2013.12.025).
